Earlier results in US9731015B2, “Water-soluble lipophilic natural compound formulations” (priority 2012, dated 2017).

Assays:
[1] = background statement
[2] = humans, up to 4 g
[3] = animal pharmacokinetic studies

Row | solubility in water [1] | quercetin in plasma after oral administration [2] | bioavailability of oral doses [3] | SMILES
1 | insoluble in water | – | – | COC1=C(OC)C(=O)C(C/C=C(\C)CC/C=C(\C)CC/C=C(\C)CC/C=C(\C)CC/C=C(\C)CC/C=C(\C)CC/C=C(\C)CC/C=C(\C)CC/C=C(\C)CCC=C(C)C)=C(C)C1=O [Co-enzyme Q-10, ubidecarenone]
2 | – | No quercetin could be found in plasma | – | O=c1c(O)c(-c2ccc(O)c(O)c2)oc2cc(O)cc(O)c12 [quercetin]
3 | virtually insoluble in water | – | very low bioavailability | Oc1ccc(C=Cc2cc(O)cc(O)c2)cc1 [resveratrol, 3,5,4′-trihydroxystilbene]
